Assay [1] has as its system metrazol induced convulsions. Put plainly: Inhibition of metrazol induced convulsions (Table 2). As to conditions: Mus musculus, iv; read-out: Anti-Metrazol ED50 (iv). Format: in vivo, mice. The method, then:
Experiments were also performed to determine the physiological relevance of these interactions by measuring the ability of the compound of and used in the invention to modulate TBPS-induced convulsions in Swiss-Webster mice. […] The time to onset of myoclonus (presence of forelimb clonic activity) induced by TBPS was determined by observing each mouse for a period of 45 minutes. Significant differences between the time to onset in control mice vs. steroid-treated mice were determined by Student's t-test. […] The number of animals with tonic and/or clonic convulsions was recorded. In the maximal electroshock test, 50 mA of current at 60 Hz was delivered through corneal electrodes for 200 msec to induce tonic seizure. […] The ED50 (the dose at which the half-maximal effect occurs) was determined for each screen.
Adult male CFI mice (20-30g) were used in these studies. […] Percent protection against metrazol-induced seizures was plotted against time after administration of the compound. […] Ten to twelve mice were used per dose of test drug. […] The number of animals with tonic and/or clonic convulsions was recorded. The ability of the steroid to abolish the tonic component was defined as the endpoint. Sedative potential was determined by a rotorod test where the number of mice staying on a rotating (6 rpm) rod for ≥1 min. in each of three trials was determined.

In a further assay the target is T1, progesterone receptor (Bos taurus, UniProt F1N712).
T1 construct: from tissue; host or cells: bovine uterus cytosol
T1 sequence (F1N712 1-914): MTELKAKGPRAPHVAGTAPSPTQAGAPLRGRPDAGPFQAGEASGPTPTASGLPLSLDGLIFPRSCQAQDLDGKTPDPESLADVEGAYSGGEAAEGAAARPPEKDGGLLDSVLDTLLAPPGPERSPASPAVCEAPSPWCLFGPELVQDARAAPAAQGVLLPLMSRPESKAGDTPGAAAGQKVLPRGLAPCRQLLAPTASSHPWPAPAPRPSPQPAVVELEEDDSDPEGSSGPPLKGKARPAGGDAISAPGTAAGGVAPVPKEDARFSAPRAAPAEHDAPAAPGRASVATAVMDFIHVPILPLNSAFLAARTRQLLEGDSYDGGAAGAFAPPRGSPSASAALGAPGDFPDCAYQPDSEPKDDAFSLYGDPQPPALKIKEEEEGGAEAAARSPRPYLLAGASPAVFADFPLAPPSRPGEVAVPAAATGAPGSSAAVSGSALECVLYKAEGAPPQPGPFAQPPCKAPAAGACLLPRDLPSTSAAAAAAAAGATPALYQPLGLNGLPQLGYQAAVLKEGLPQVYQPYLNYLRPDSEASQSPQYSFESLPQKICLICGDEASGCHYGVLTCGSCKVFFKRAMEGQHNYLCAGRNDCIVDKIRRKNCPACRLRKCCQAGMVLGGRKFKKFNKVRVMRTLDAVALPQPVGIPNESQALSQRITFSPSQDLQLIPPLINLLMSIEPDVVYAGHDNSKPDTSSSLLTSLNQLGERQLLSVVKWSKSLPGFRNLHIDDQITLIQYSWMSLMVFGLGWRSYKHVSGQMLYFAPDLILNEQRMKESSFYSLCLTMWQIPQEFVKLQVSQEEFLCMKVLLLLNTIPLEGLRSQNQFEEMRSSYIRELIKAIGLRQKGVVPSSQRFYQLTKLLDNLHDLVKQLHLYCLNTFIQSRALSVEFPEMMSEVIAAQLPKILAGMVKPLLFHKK
Put plainly: Inhibition of 3H-progesterone binding to bovine uteral progesterone receptors. An outline of the steps: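 Bovine uterine cytosol served as the progesterone receptor source. Compounds were scored by their inhibition of ^3H-progesterone binding.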

For assay [2], the target named is GABA receptor-chloride ionophore complex (GR complex). Put plainly: [35S]TBPS binding modulation assay.
A further assay concerns the target T2, estrogen receptor (Bos taurus, UniProt P49884).
T2 construct: from tissue; host or cells: bovine uterus cytosol
T2 sequence (P49884 1-596): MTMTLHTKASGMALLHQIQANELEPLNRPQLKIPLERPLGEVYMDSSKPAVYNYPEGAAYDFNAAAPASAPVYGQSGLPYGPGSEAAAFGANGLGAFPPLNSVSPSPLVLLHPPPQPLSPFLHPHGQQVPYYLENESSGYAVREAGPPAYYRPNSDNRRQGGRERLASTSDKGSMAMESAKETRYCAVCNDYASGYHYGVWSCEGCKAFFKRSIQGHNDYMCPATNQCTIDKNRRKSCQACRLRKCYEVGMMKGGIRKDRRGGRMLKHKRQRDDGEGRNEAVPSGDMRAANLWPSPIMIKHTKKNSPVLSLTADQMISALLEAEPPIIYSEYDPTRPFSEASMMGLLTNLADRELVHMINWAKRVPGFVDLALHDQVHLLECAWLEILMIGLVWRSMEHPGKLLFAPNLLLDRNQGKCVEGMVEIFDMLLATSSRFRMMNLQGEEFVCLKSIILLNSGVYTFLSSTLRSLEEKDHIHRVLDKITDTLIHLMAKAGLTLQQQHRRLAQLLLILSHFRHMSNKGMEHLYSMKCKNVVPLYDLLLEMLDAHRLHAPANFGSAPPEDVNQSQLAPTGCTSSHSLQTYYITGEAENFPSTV
Description: Inhibition of 3H-estradiol binding to bovine uteral estrogen receptors. To be noted: read-out: % of inhibition of 3H-estradiol binding, B, competitor 10^-6 M; 0.25 nM 3H-estradiol. The protocol:
The hormonal activity of drugs described herein was further studied through testing their potential estrogenic, progestinic, mineralocorticoid and glucocorticoid activities. These activities were analyzed by monitoring the ability of the drugs to inhibit binding of the steroid hormones to their respective hormone receptors.

In assay [3] the test system is GABA receptor complex (36Cl uptake, cerebral cortical synaptoneurosomes). Put plainly: GABA-stimulated 36Cl uptake in rat cerebral cortical synaptoneurosomes. Format: biochemical, rat (male Sprague-Dawley). The method, then:
In addition, the ability of the BZ clonazepam to modulate ^36 Cl uptake in the presence or absence of 5α-pregnandiol was evaluated.
The homogenate was diluted to a final volume of 40 mL with buffer and filtered through three layers of Nylon mesh (160 μm).
Aliquots of membrane preparation (200 μL) were preincubated at 30° C. for 10 min. The interaction was initiated by the simultaneous addition of drugs/steroids and 0.2 mL ^36 Cl (New England Nuclear Boston, Mass., 0.55 mCi/mmol, 0.8 μCi/ml) resulting in a total incubation volume of 0.4 mL. Steroids and test drugs were solubilized in dimethylsufoxide (DMSO) and added to the reaction mixture in 2 μL aliquots. An equal volume of vehicle was always included in the control reaction mixture. The mixture was gently mixed and ^36 Cl uptake terminated after 5 sec by the of 5 mL of ice cold buffer containing 100 μM picrotoxin (Sigma Chem Co.) followed immediately by rapid filtration through glass fiber filters (Whatman GF/C) under vacuum. The filters were washed twice with 5 mL of ice-cold buffer and the filter-bound radioactivity quantitated by liquid scintillation spectrophotometry. Specific uptake was calculated by subtracting the amount of ^36 Cl bound to the filters in the absence of synaptoneurosomes from that observed in their presence. Percent enhancement represents percent increase in uptake over that of basal ^36 Cl uptake. Statistical comparisons utilized the analysis of variance (ANOVA).

Assay [4] has as its system GABA receptor-chloride ionophore complex (GR complex). Put plainly: Dissociation kinetics of [35S]TBPS in rat cerebral cortical membranes. Format: binding. To be noted: alphaxalone 300 nM, 3α-OH-DHP 20 nM.
Assay [5] has as its system number of light/dark transitions (anxiety). As to conditions: Crawley et al., cited from earlier work.
Assay [6] has the same test system. Description: Light/dark transition test. Format: in vivo, mice (male N.I.H. Swiss-Webster). The source says: The light/dark transition test (Crawley and Goodwin, 1980) is based on the observation that rodents naturally tend to explore novel environments, but open, brightly lit arenas are aversive to the rodents and inhibit exploratory behavior (Christmas and Maxwell, 1970; File, 1980). […] Similar to the light/dark transition test, the open-field test measures the antagonism between the tendency to explore a novel environment and the tendency to remain still in an aversive environment (brightly lit arena). […] The open-field test provides a simple, non-punished assessment of the potential anxiolytic properties of novel compounds. Finally, 3α-OH-DHP was tested for anxiolytic properties in a Vogel conflict paradigm. The ability of BZs to attenuate the suppression of behavior by punishment in conflict paradigms is well established (Gellar et al., 1962; Vogel et al., 1971).
Male N.I.H. Swiss-Webster mice (Harlan) weighing 15-20 g were used in all experiments. The mice were housed 4/cage in polyethylene cages with sawdust bedding. The colony room was environmentally controlled (22° C.) with a 12 hr. light/dark cycle (0600-1800 hrs.). The mice had free access to food and water. The experiments were run from 0700-1500 hrs. and groups were counterbalanced for time of day effects.
The method used was previously described by Crawley and Goodwin (1980). The apparatus included a large box (26×33×24 cm) connected to a small box (15×22×14 cm) through an opening (5×6 cm). The large box was brightly lit with a standard 100W light bulb, while the small box was kept dark. Following pretreatment with a test drug, mice were placed in the center of the large box and the number of transitions between the large and small boxes was counted for 10 min. […] During the antagonist studies, CGS-8216 was administered 30 min. prior to the test drug.
2-Hydroxypropyl β-cyclodextrin Diazepam and chlordiazepoxide are available from Sigma, Co. (St. Louis, Mo.). CGS-8216 was obtained from Ciba-Geigy (Summit, N.J.). All drugs were dissolved in 20% β-cyclodextrin in water and sonicated overnight. All drugs were administered intraperitoneally in a volume of 100 μL/20 g. CGS-8216 was administered subcutaneously in a volume of 100 μL/20 g.
The vehicle control data were analyzed across test days using an 1-way analysis of variance (ANOVA). […] The dose-response curves were then analyzed using an 1-way ANOVA, followed by Dunnett's t-test for individual comparisons between doses and control. The open-field and habituated locomotor data were analyzed using ANOVA followed by Dunnett's t-test. […] All data is expressed as the mean±S.E.M.

[7] abbreviates: Na pentobarbital 30 μM, 2 nM [35S]TBPS.

Like-named read-outs stand apart in the source and are kept apart here.

The source of these data is patent US5232917A, “Methods, compositions, and compounds for allosteric modulation of the GABA receptor by members of the androstane and pregnane series” (priority 1991, dated 1993).

As for `C[C@H](O)[C@H]1CC[C@H]2[C@@H]3CC[C@H]4C[C@H](O)CC[C@]4(C)[C@H]3CC[C@]12C` [5α-pregnanediol, 5α-pregnan-3α,20α-diol], the ED50 in assay [1] was found to be 40 mg/kg. Also, the inhibition at 10 µM on progesterone receptor (read-out: % of inhibition of 3H-progesterone binding, A, competitor 10^-5 M, 0.15 nM 3H-progesterone) is 2%; at progesterone receptor (read-out: % of inhibition of 3H-progesterone binding, B, competitor 10^-5 M, 0.25 nM 3H-progesterone), 3%. For the same compound, the inhibition at 1 µM on progesterone receptor (read-out: % of inhibition of 3H-progesterone binding, B, competitor 10^-6 M, 0.25 nM 3H-progesterone) stood at 1%; on estrogen receptor it was 0%. Further, the IC50 was determined as 82 nM in assay [2] (read-out: IC50, inhibition of [35S]-TBPS binding, +5 μM GABA, in the presence of 5 μM GABA) and 359 nM in assay [2] (read-out: IC50, inhibition of [35S]-TBPS binding, No GABA, washed synaptoneurosomes, no GABA added). Besides, in assay [2] (saturating concentrations of test compound), the “Max. Inhib., maximal % of specifically bound [35S]-TBPS displaced” value is 52%. The “% enhancement of basal 36Cl uptake” value in assay [3] (5α-pregnanediol (3 μM), no GABA) is reported as 2 ± 1%; in assay [3] (GABA (25 μM) + 5α-pregnanediol (3 μM)) it was 162±4%; in assay [3] (GABA (25 μM) + 5α-pregnanediol (3 μM) + clonazepam (1 μM)), 192 ± 16%. Besides, in assay [3] (5α-pregnanediol at 3 μM, GABA 25 μM, FIG. 4), the “maximal enhancement of GABA-stimulated 36Cl uptake above GABA alone” value is recorded as “approximately 30%”. The “concentration at which potentiation of GABA-stimulated 36Cl uptake reaches a plateau” value in assay [3] (FIG. 4) came out at 3 µM. In addition, in assay [3] (from 60% to this value above GABA (25 μM) alone, 3α-OH-DHP 500 nM + 5α-pregnanediol), the “3α-OH-DHP potentiation of GABA-stimulated 36Cl uptake as antagonized by 5α-pregnanediol” value came to 31%. Moreover, the “effect on basal 36Cl uptake” value in assay [3] (steroid alone, no GABA) is listed as “no effect”.

Take `CCCC(C)C1(CC)C(=O)NC(=O)NC1=O` (stereo not drawn) [pentobarbital]: in assay [4] (Na pentobarbital 30 μM), the “Total percentage of specific sites, rapid (R)” value stood at 48 ± 6% and the “Total percentage of specific sites, slow (S)” value turned out to be 61 ± 6%. Moreover, in assay [4] (setting [7]), the “K-1, rapidly dissociating component (R)” value came out at 0.158 ± 0.013 min⁻¹; the “K-1, slowly dissociating component (S)” value was 0.0186 ± 0.0015 min⁻¹; the “T1/2, rapidly dissociating component (R)” value is on record as 4.4 ± 0.3 min; the “T1/2, slowly dissociating component (S)” value stood at 38 ± 3 min. Also, the “biphasic dissociation mechanism of [35S]TBPS” value in assay [4] (pentobarbital 30 μM, FIGS. 2A, 2B) is recorded as “induces a biphasic dissociation mechanism”. In addition, the “effect on number of light/dark transitions (literature)” value in assay [5] (Blumstein and Crawley, 1983) was “increase the number of transitions”.

Turning to `O=C1C2C=Nc3ccccc3C2=NN1c1ccccc1` (stereo not drawn) [CGS-8216, reference compound], the “block of anxiolytic effect of 3α-OH-DHP by CGS-8216” value in assay [6] (CGS-8216 10 mg/kg, 3α-OH-DHP 10 mg/kg, FIG. 13A) is listed as “unable to block”. Moreover, the “block of anxiolytic effect of diazepam by CGS-8216” value in assay [6] (diazepam 1.0 mg/kg, FIG. 13B) is reported as “able to block the anxiolytic effect of diazepam”. Moreover, in assay [6] (p>0.4 vs vehicle), the “intrinsic activity in light/dark transition test” value is “did not demonstrate any intrinsic activity”. Further, in assay [5] (1984), the “block of diazepam's anxiolytic effects (literature)” value is “block diazepam's anxiolytic effects”.
